ChEMBL document CHEMBL4196088, “Induction of cell killing and autophagy by amphiphilic pyrrolidine derivatives on human pancreatic cancer cells” (Eur J Med Chem, 2018)

How the values were obtained:
[1] = Induction of apoptosis in HPNE cells assessed as accumulation at sub-G0/G1 phase at 20 uM after 24 hrs by propidium iodide staining based flow cytometry (reference value: 0.6%); assay type: cell-based; conditions: human
[2] = test system: PK9; test: Induction of apoptosis in human PK9 cells assessed as accumulation at sub-G0/G1 phase at 20 uM after 48 hrs by propidium iodide staining based flow cytometry (reference value: 3.8%); assay type: functional
[3] = Induction of apoptosis in HPNE cells assessed as accumulation at sub-G0/G1 phase at 20 uM after 72 hrs by propidium iodide staining based flow cytometry (reference value: 6.6%); assay type: cell-based; conditions: human
[4] = Induction of apoptosis in HPNE cells assessed as accumulation at sub-G0/G1 phase at 10 uM after 72 hrs by propidium iodide staining based flow cytometry (reference value: 6.6%); assay type: cell-based; conditions: human
[5] = test system: Fibroblast; test: Induction of apoptosis in human primary fibroblasts assessed as accumulation at sub-G0/G1 phase at 10 uM after 48 hrs by propidium iodide staining based flow cytometry (reference value: 6.1%); assay type: cell-based
[6] = test system: PANC-1; test: Induction of apoptosis in human PANC1 cells assessed as accumulation at sub-G0/G1 phase at 20 uM after 24 hrs by propidium iodide staining based flow cytometry (reference value: 0.6 to 0.7%); assay type: functional
[7] = test system: HeLa; test: Growth inhibition of human HeLa cells after 72 hrs; assay type: functional, cell-based
[8] = Induction of apoptosis in HPNE cells assessed as accumulation at sub-G0/G1 phase at 10 uM after 48 hrs by propidium iodide staining based flow cytometry (reference value: 0.7%); assay type: cell-based; conditions: human
[9] = test system: PK9; test: Induction of apoptosis in human PK9 cells assessed as accumulation at sub-G0/G1 phase at 20 uM after 72 hrs by propidium iodide staining based flow cytometry (reference value: 4%); assay type: functional
[10] = test system: BXPC-3; test: Induction of apoptosis in human BxPC3 cells assessed as accumulation at sub-G0/G1 phase at 20 uM after 24 hrs by propidium iodide staining based flow cytometry (reference value: 2.3%); assay type: functional
[11] = test system: BXPC-3; test: Induction of apoptosis in human BxPC3 cells assessed as accumulation at sub-G0/G1 phase harboring pSFFV-Bcl-XL at 20 uM after 48 hrs by propidium iodide staining based flow cytometry (reference value: 1.3%); assay type: functional
[12] = test system: PANC-1; test: Induction of apoptosis in human PANC1 cells assessed as accumulation at sub-G0/G1 phase at 20 uM after 72 hrs by propidium iodide staining based flow cytometry (reference value: 1.6 to 3.2%); assay type: functional
[13] = test system: BXPC-3; test: Induction of apoptosis in human BxPC3 cells harboring pSFFV-Bcl-XL assessed as accumulation at sub-G0/G1 phase at 10 uM after 24 hrs by propidium iodide staining based flow cytometry (reference value: 1.5%); assay type: functional
[14] = test system: PANC-1; test: Induction of apoptosis in human PANC1 cells assessed as accumulation at sub-G0/G1 phase at 10 uM after 48 hrs by propidium iodide staining based flow cytometry (reference value: 0.2 to 2.9%); assay type: functional
[15] = test system: BXPC-3; test: Induction of apoptosis in human BxPC3 cells assessed as accumulation at sub-G0/G1 phase at 20 uM after 48 hrs by propidium iodide staining based flow cytometry (reference value: 2.8%); assay type: functional
[16] = test system: PANC-1; test: Induction of apoptosis in human PANC1 cells assessed as accumulation at sub-G0/G1 phase at 20 uM after 48 hrs by propidium iodide staining based flow cytometry (reference value: 0.2 to 2.9%); assay type: functional
[17] = test system: Fibroblast; test: Induction of apoptosis in human primary fibroblasts at 20 uM after 48 hrs by propidium iodide staining based flow cytometry (reference value: 6.1%); assay type: cell-based
[18] = test system: PK9; test: Induction of apoptosis in human PK9 cells assessed as accumulation at sub-G0/G1 phase at 10 uM after 72 hrs by propidium iodide staining based flow cytometry (reference value: 4%); assay type: functional
[19] = test system: PANC-1; test: Induction of apoptosis in human PANC1 cells assessed as accumulation at sub-G0/G1 phase at 10 uM after 24 hrs by propidium iodide staining based flow cytometry (reference value: 0.6 to 0.7%); assay type: functional
[20] = test system: BXPC-3; test: Induction of apoptosis in human BxPC3 cells assessed as accumulation at sub-G0/G1 phase at 10 uM after 48 hrs by propidium iodide staining based flow cytometry (reference value: 2.8%); assay type: functional
[21] = test system: Fibroblast; test: Induction of apoptosis in human primary fibroblasts at 20 uM after 72 hrs by propidium iodide staining based flow cytometry (reference value: 6.7%); assay type: cell-based
[22] = test system: BXPC-3; test: Induction of apoptosis in human BxPC3 cells assessed as accumulation at sub-G0/G1 phase harboring pSFFV-Bcl-XL at 20 uM after 72 hrs by propidium iodide staining based flow cytometry (reference value: 1.3%); assay type: functional
[23] = test system: BXPC-3; test: Induction of apoptosis in human BxPC3 cells assessed as accumulation at sub-G0/G1 phase harboring pSFFV-Bcl-XL at 20 uM after 24 hrs by propidium iodide staining based flow cytometry (reference value: 1.2%); assay type: functional
[24] = Induction of apoptosis in HPNE cells assessed as accumulation at sub-G0/G1 phase at 10 uM after 24 hrs by propidium iodide staining based flow cytometry (reference value: 0.6%); assay type: cell-based; conditions: human
[25] = test system: PK9; test: Induction of apoptosis in human PK9 cells assessed as accumulation at sub-G0/G1 phase at 10 uM after 24 hrs by propidium iodide staining based flow cytometry (reference value: 2.2%); assay type: functional
[26] = test system: Fibroblast; test: Induction of apoptosis in human primary fibroblasts at 20 uM after 24 hrs by propidium iodide staining based flow cytometry (reference value: 4.8%); assay type: cell-based
[27] = test system: PANC-1; test: Induction of apoptosis in human PANC1 cells assessed as accumulation at sub-G0/G1 phase at 10 uM after 72 hrs by propidium iodide staining based flow cytometry (reference value: 1.6 to 3.2%); assay type: functional
[28] = test system: BXPC-3; test: Induction of apoptosis in human BxPC3 cells harboring pSFFV-Bcl-XL assessed as accumulation at sub-G0/G1 phase at 10 uM after 72 hrs by propidium iodide staining based flow cytometry (reference value: 2%); assay type: functional
[29] = test system: Fibroblast; test: Induction of apoptosis in human primary fibroblasts assessed as accumulation at sub-G0/G1 phase at 10 uM after 72 hrs by propidium iodide staining based flow cytometry (reference value: 6.7%); assay type: cell-based
[30] = test system: PK9; test: Induction of apoptosis in human PK9 cells assessed as accumulation at sub-G0/G1 phase at 20 uM after 24 hrs by propidium iodide staining based flow cytometry (reference value: 2.2%); assay type: functional
[31] = test system: BXPC-3; test: Induction of apoptosis in human BxPC3 cells assessed as accumulation at sub-G0/G1 phase at 10 uM after 24 hrs by propidium iodide staining based flow cytometry (reference value: 1.8%); assay type: functional
[32] = Induction of apoptosis in HPNE cells assessed as accumulation at sub-G0/G1 phase at 20 uM after 48 hrs by propidium iodide staining based flow cytometry (reference value: 0.7%); assay type: cell-based; conditions: human
[33] = test system: BXPC-3; test: Induction of apoptosis in human BxPC3 cells assessed as accumulation at sub-G0/G1 phase at 20 uM after 72 hrs by propidium iodide staining based flow cytometry (reference value: 3.4%); assay type: functional
[34] = test system: BXPC-3; test: Induction of apoptosis in human BxPC3 cells assessed as accumulation at sub-G0/G1 phase at 10 uM after 72 hrs by propidium iodide staining based flow cytometry (reference value: 3.4%); assay type: functional
[35] = test system: PK9; test: Induction of apoptosis in human PK9 cells assessed as accumulation at sub-G0/G1 phase at 10 uM after 48 hrs by propidium iodide staining based flow cytometry (reference value: 3.8%); assay type: functional
[36] = test system: Fibroblast; test: Induction of apoptosis in human primary fibroblasts assessed as accumulation at sub-G0/G1 phase at 10 uM after 24 hrs by propidium iodide staining based flow cytometry (reference value: 4.8%); assay type: cell-based
[37] = test system: BXPC-3; test: Induction of apoptosis in human BxPC3 cells harboring pSFFV-Bcl-XL assessed as accumulation at sub-G0/G1 phase at 10 uM after 48 hrs by propidium iodide staining based flow cytometry (reference value: 1.9%); assay type: functional
[38] = test system: PANC-1; test: Growth inhibition of human PANC1 cells after 72 hrs by XTT assay; assay type: functional, cell-based; conditions: PANC-1, 72 h
[39] = test system: MIA PaCa-2; test: Growth inhibition of human MIAPaCa2 cells after 72 hrs by MTT assay; assay type: functional, cell-based; conditions: MIA PaCa-2, 72 h
[40] = test system: PK9; test: Growth inhibition of human PK9 cells after 72 hrs by MTT assay; assay type: functional, cell-based; conditions: PK9, 72 h
[41] = test system: BXPC-3; test: Growth inhibition of human BxPC3 cells after 72 hrs by XTT assay; assay type: functional, cell-based; conditions: BXPC-3, 72 h
[42] = test system: SK-BR-3; test: Growth inhibition of human SKBR3 cells after 72 hrs; assay type: functional, cell-based; conditions: SK-BR-3, 72 h

Compound | Activity [1] | Activity [2] | Activity [3] | Activity [4] | Activity [6] | Activity [8] | Activity [9] | Activity [10] | Activity [11] | Activity [12] | Activity [14] | Activity [16] | Activity [18] | Activity [19] | Activity [24] | Activity [25] | Activity [27] | Activity [30] | Activity [32] | Activity [35] | other results
Cl.O[C@H]1CN[C@H](COCCCCCCCCC/C=C/c2ccc(-c3ccccc3)cc2)C1 | 83.1% | 77.4% | 98.3% | 93.4% | 17.6% | 83.5% | 84.9% | 12.7% | 11.4% | 66.2% | 23.2% | 38% | 39.4% | 8.8% | 80.6% | 9.6% | 56.2% | 35.1% | 93.5% | 30.4% | Activity [5]: 11.7%; IC50 [7]: 4 µM; Activity [13]: 2.6%; Activity [15]: 59.3%; Activity [17]: 21.7%; Activity [20]: 34.6%; Activity [21]: 33.7%; Activity [22]: 49.7%; Activity [23]: 7.3%; Activity [26]: 17.2%; Activity [28]: 15.7%; Activity [29]: 22.1%; Activity [31]: 22.1%; Activity [33]: 72%; Activity [34]: 59.3%; Activity [36]: 9.5%; Activity [37]: 10%
CCCCCC/C=C/CCCCCCCCOC[C@H]1NC[C@H](O)[C@@H]1O | 46.9% | 4.3% | 70.3% | 2.5% | 7.9% | 2% | 5.7% | 9.5% | 5% | 33.7% | 9.1% | 23.4% | 2.7% | 5.7% | 3.4% | 3.4% | 6.4% | 2.2% | 65.7% | 3.8% | Activity [13]: 4.3%; Activity [15]: 19.6%; IC50 [38]: 80 µM; IC50 [39]: > 100 µM; Activity [20]: 7.3%; Activity [22]: 3.8%; Activity [23]: 4.9%; IC50 [40]: > 100 µM; IC50 [41]: > 100 µM; Activity [28]: 3.8%; Activity [31]: 5.3%; Activity [33]: 21.5%; Activity [34]: 7.8%; IC50 [42]: 10 µM; Activity [37]: 1.9%
Cl.O[C@H]1CN[C@H](COCCCCCC/C=C/c2ccc(-c3ccccc3)cc2)C1 | 69.6% | 66.6% | 92.6% | 93.6% | 16.1% | 78.5% | 71.5% | – | – | 54.2% | 29.3% | 36.9% | 13.5% | 9.6% | 44.4% | 6.9% | 47.9% | 26% | 92.1% | 10% | Activity [5]: 19.8%; IC50 [7]: 4.2 µM; Activity [17]: 75.4%; Activity [21]: 73.7%; Activity [26]: 58.9%; Activity [29]: 54.5%; Activity [36]: 14.6%
CCCCCCCC/C=C\CCCCCCCCNC[C@H]1NC[C@H](O)[C@@H]1O | – | – | – | – | – | – | – | – | – | – | – | – | – | – | – | – | – | – | – | – | IC50 [42]: 10 µM
O[C@H]1[C@@H](O)CN[C@@H]1COCCCCCCCC/C=C/c1ccc(Oc2ccccc2)cc1 | 79.1% | 5.2% | 85.8% | 7.9% | 9.9% | 6.8% | 6.2% | 8.7% | 4.5% | 29.3% | 3.8% | 33.1% | 3.1% | 3.1% | 6.5% | 3.4% | 4.4% | 4.6% | 81.4% | 4.4% | Activity [13]: 3.6%; Activity [15]: 16.2%; Activity [20]: 6.6%; Activity [22]: 4.3%; Activity [23]: 4.4%; Activity [28]: 4.8%; Activity [31]: 3.9%; Activity [33]: 20.3%; Activity [34]: 8.3%; IC50 [42]: 15 µM; Activity [37]: 4.8%
CCCCCCCCCCCCCCCCOC[C@H]1NC[C@H](O)[C@@H]1O | 53.9% | 4.6% | 66.8% | 3.1% | 4.4% | 2.2% | 2.8% | 7.1% | 4.8% | 12.8% | 3.5% | 4.8% | 2.6% | 3.1% | 2.6% | 2% | 4.1% | 2.6% | 62.1% | 3.5% | Activity [13]: 3.9%; Activity [15]: 16.9%; Activity [20]: 5.7%; Activity [22]: 7.6%; Activity [23]: 4.4%; Activity [28]: 5.8%; Activity [31]: 3.5%; Activity [33]: 21.7%; Activity [34]: 7.5%; IC50 [42]: 50 µM; Activity [37]: 4.2%
